Results reported in patent publication US20240383852A1, “ANTI-VIRAL COMPOUNDS” (INFEX Therapeutics Limited, priority 2021, published 2024).
Structures can show the parent of a compound that is named as a salt.

Key:
[1] = system: human Hep G2 cells (ATCC HB-8065); assay: Cytotoxicity in Hep G2 cells (CellTiter-Glo); assay type: cell-based; details: Hep G2 cells, 100 μM test article, 24-hour exposure
[2] = target: T1, SARS-CoV-2 PLpro (Severe acute respiratory syndrome coronavirus 2, UniProt P0DTD1); assay: biochemical; details: 60 nM papain-like protease, 50 μM Z-RLRGG-AMC, pH 7.5, 37° C.; read-out: SARS-CoV-2 PLpro IC50
T1 construct: containing 60 nM papain-like protease

SMILES | % Cell Viability [1] | IC50 [2]
Cc1ccc(N2C[C@H]3C[C@@H]2CN3C)cc1C(=O)N[C@H](C)c1cccc(-c2cccc(C(C)(C)O)c2)c1 [Example 57, N-[(1R)-1-[3-[3-(1-Hydroxy-1-methyl-ethyl)phenyl]phenyl]ethyl]-2-methyl-5-[(1R,4R)-5-methyl-2,5-diazabicyclo[2.2.1]heptan-2-yl]benzamide] | 0.9% | < 2000 nM
Cc1ccc(N2CCN(C)CC2)cc1C(=O)N[C@H](C)c1cccc(-c2c(C)n[nH]c2C)c1 [Example 58, N-[(1R)-1-[3-(3,5-Dimethyl-1H-pyrazol-4-yl)phenyl]ethyl]-2-methyl-5-(4-methylpiperazin-1-yl)benzamide] | 86.7% | < 2000 nM
Cc1ccc(N2CCN(C)CC2)cc1C(=O)N[C@H](C)c1cccc(-c2cncnc2)c1 [Example 59, 2-Methyl-5-(4-methylpiperazin-1-yl)-N-[(1R)-1-(3-pyrimidin-5-ylphenyl)ethyl]benzamide] | 86.0% | < 10000 nM
Cc1ccc(N2CCN(C)CC2)cc1C(=O)N[C@H](C)c1cccc(-c2c(C)nn(C)c2C)c1 [Example 62, 2-Methyl-5-(4-methylpiperazin-1-yl)-N-[(1R)-1-[3-(1,3,5-trimethylpyrazol-4-yl)phenyl]ethyl]benzamide] | 56.6% | < 2000 nM
Cc1ccc(N2CCN(C)CC2)cc1C(=O)N[C@H](C)c1cccc(-c2cnc(N)nc2)c1 [Example 63, N-[(1R)-1-[3-(2-Aminopyrimidin-5-yl)phenyl]ethyl]-2-methyl-5-(4-methylpiperazin-1-yl)benzamide] | 75.6% | < 2000 nM
Cc1ccc(N2CCN(C)CC2)cc1C(=O)N[C@H](C)c1cccc(-c2nccs2)c1 [Example 65, 2-Methyl-5-(4-methylpiperazin-1-yl)-N-[(1R)-1-(3-thiazol-2-ylphenyl)ethyl]benzamide] | 77.6% | < 2000 nM
Cc1ccc(N2CCN(C)CC2)cc1C(=O)N[C@H](C)c1cccc(-c2ccc(=O)[nH]c2)c1 [Example 66, 2-Methyl-5-(4-methylpiperazin-1-yl)-N-[(1R)-1-[3-(6-oxo-1,6-dihydropyridin-3-yl)phenyl]ethyl]benzamide] | 100.8% | < 2000 nM
Cc1ccc(N2CCN(C)CC2)cc1C(=O)N[C@H](C)c1cccc(-c2ccc(N)nc2)c1 [Example 67, N-[(1R)-1-[3-(6-Amino-3-pyridyl)phenyl]ethyl]-2-methyl-5-(4-methylpiperazin-1-yl)benzamide] | 58.7% | < 2000 nM
Cc1ccc(N2CCN(C)CC2)cc1C(=O)N[C@H](C)c1cccc(-c2cccc(CN(C)C)c2)c1 [Example 68, N-[(1R)-1-[3-[3-[(Dimethylamino)methyl]phenyl]phenyl]ethyl]-2-methyl-5-(4-methylpiperazin-1-yl)benzamide Dihydrochloride Salt] | 48.9% | < 2000 nM
Cc1ccc(N2CCN(C)CC2)cc1C(=O)N[C@H](C)c1cccc(C(O)CO)c1 (stereo partly drawn) [Example 69, N-[(1R)-1-[3-(1,2-Dihydroxyethyl)phenyl]ethyl]-2-methyl-5-(4-methylpiperazin-1-yl)benzamide] | 107.0% | < 10000 nM
Cc1ccc(N2CCN(C)CC2)cc1C(=O)N[C@H](C)c1cccc(-c2ccc(C(O)CO)cc2)c1 (stereo partly drawn) [Example 70, N-[(1R)-1-[3-[4-(1,2-Dihydroxyethyl)phenyl]phenyl]ethyl]-2-methyl-5-(4-methylpiperazin-1-yl)benzamide] | 59.1% | < 2000 nM
Cc1ccc(N2CCN(C)CC2)cc1C(=O)N[C@H](C)c1cccc(-c2cccc(C(O)CO)c2)c1 (stereo partly drawn) [Example 71, N-[(1R)-1-[3-[3-(1,2-Dihydroxyethyl)phenyl]phenyl]ethyl]-2-methyl-5-(4-methylpiperazin-1-yl)benzamide] | 68.4% | < 2000 nM
Cc1ccc(N2CCN(C)CC2)cc1C(=O)N[C@H](C)c1cccc(-c2ccc(N3CCNCC3)cc2)c1 [Example 73, 2-Methyl-5-(4-methylpiperazin-1-yl)-N-[(1R)-1-[3-(4-piperazin-1-ylphenyl)phenyl]ethyl]benzamide dihydrochloride salt] | 0.6% | < 2000 nM
Cc1ccc(N2CCN(C)CC2)cc1C(=O)N[C@H](C)c1cccc(-c2cccc(N3CCNCC3)c2)c1 [Example 74, 2-Methyl-5-(4-methylpiperazin-1-yl)-N-[(1R)-1-[3-(3-piperazin-1-ylphenyl)phenyl]ethyl]benzamide] | 0.6% | < 2000 nM
CNCCN(C)C(=O)c1ccc(-c2cccc([C@@H](C)NC(=O)c3cc(N4CCN(C)CC4)ccc3C)c2)cc1 [Example 75, 2-Methyl-N-[(1R)-1-[3-[4-[methyl-[2-(methylamino)ethyl]carbamoyl]phenyl]phenyl]ethyl]-5-(4-methylpiperazin-1-yl)benzamide] | 123.6% | < 2000 nM
Cc1ccc(N2CCN(C)CC2)cc1C(=O)N[C@H](C)c1cccc(-c2cccc(=O)[nH]2)c1 [Example 76, 2-Methyl-5-(4-methylpiperazin-1-yl)-N-[(1R)-1-[3-(6-oxo-1H-pyridin-2-yl)phenyl]ethyl]benzamide] | 81.2% | < 2000 nM
Cc1ccc(N2CCN(C)CC2)cc1C(=O)N[C@H](C)c1cccc(-c2ccc(C3CCNCC3)cc2)c1 [Example 77, 2-Methyl-5-(4-methylpiperazin-1-yl)-N-[(1R)-1-[3-[4-(4-piperidyl)phenyl]phenyl]ethyl]benzamide] | 1.0% | < 2000 nM
Cc1ccc(N2CCN(C)CC2)cc1C(=O)N[C@H](C)c1cccc(-c2ccc(CNC3CCCC3)s2)c1 [Example 78, N-[(1R)-1-[3-[5-[(Cyclopentylamino)methyl]-2-thienyl]phenyl]ethyl]-2-methyl-5-(4-methylpiperazin-1-yl)benzamide Dihydrochloride Salt] | 1.3% | < 2000 nM
Cc1ccc(N2CCN(C)CC2)cc1C(=O)N[C@H](C)c1cccc(-c2ccc(CO)s2)c1 [Example 79, N-[(1R)-1-[3-[5-(Hydroxymethyl)-2-thienyl]phenyl]ethyl]-2-methyl-5-(4-methylpiperazin-1-yl)benzamide] | 52.9% | < 2000 nM
Cc1ccc(N2CCN(C)CC2)cc1C(=O)N[C@H](C)c1cccc(-c2ccccc2CO)c1 [Example 80, N-[(1R)-1-[3-[2-(Hydroxymethyl)phenyl]phenyl]ethyl]-2-methyl-5-(4-methylpiperazin-1-yl)benzamide] | 79.5% | < 2000 nM
Cc1ccc(N2CCN(C)CC2)cc1C(=O)N[C@H](C)c1cccc(-c2cc(CO)cc(CO)c2)c1 [Example 81, N-[(1R)-1-[3-[3,5-Bis(hydroxymethyl)phenyl]phenyl]ethyl]-2-methyl-5-(4-methylpiperazin-1-yl)benzamide] | 94.4% | < 2000 nM
CNC(=O)CCc1cccc([C@@H](C)NC(=O)c2cc(N3CCN(C)CC3)ccc2C)c1 [Example 85, 2-Methyl-N-[(1R)-1-[3-[3-(methylamino)-3-oxo-propyl]phenyl]ethyl]-5-(4-methylpiperazin-1-yl)benzamide] | 85.1% | < 10000 nM
Cc1ccc(N2CCN(C)CC2)cc1C(=O)N[C@H](C)c1cccc(-c2cccc(C(=O)N(C)CCN(C)C)c2)c1 [Example 86, N-[(1R)-1-[3-[3-[2-(Dimethylamino)ethyl-methyl-carbamoyl]phenyl]phenyl]ethyl]-2-methyl-5-(4-methylpiperazin-1-yl)benzamide] | 72.1% | < 2000 nM
COCCNC(=O)c1cccc(-c2cccc([C@@H](C)NC(=O)c3cc(N4CCN(C)CC4)ccc3C)c2)c1 [Example 87, N-[(1R)-1-[3-[3-(2-Methoxyethylcarbamoyl)phenyl]phenyl]ethyl]-2-methyl-5-(4-methylpiperazin-1-yl)benzamide] | 74.6% | < 2000 nM
Cc1ccc(N2CCN(C)CC2)cc1C(=O)N[C@H](C)c1cccc(-c2cccc(C(=O)N3CCN(C)CC3)c2)c1 [Example 88, 2-Methyl-N-[(1R)-1-[3-[3-(4-methylpiperazine-1-carbonyl)phenyl]phenyl]ethyl]-5-(4-methylpiperazin-1-yl)benzamide] | 78.8% | < 2000 nM
Cc1ccc(N2CCN(C)CC2)cc1C(=O)N[C@H](C)c1cccc(-c2cccc(C(=O)NC[C@H](O)CO)c2)c1 [Example 89] | 96.2% | < 5000 nM
Cc1ccc(N2CCN(C)CC2)cc1C(=O)N[C@H](C)c1cccc(-c2cccc(C(=O)NC[C@@H](O)CO)c2)c1 [Example 90] | 103.1% | < 2000 nM
Cc1ccc(N2CCN(C)CC2)cc1C(=O)N[C@H](C)c1cccc(-c2cccc(C(=O)N3CCCCC3)c2)c1 [Example 91, 2-Methyl-5-(4-methylpiperazin-1-yl)-N-[(1R)-1-[3-[3-(piperidine-1-carbonyl)phenyl]phenyl]ethyl]benzamide] | 27.1% | < 2000 nM
Cc1ccc(N2CCN(C)CC2)cc1C(=O)N[C@H](C)c1cccc(-c2cccc(C(=O)N3CCOCC3)c2)c1 [Example 92, 2-Methyl-5-(4-methylpiperazin-1-yl)-N-[(1R)-1-[3-[3-(morpholine-4-carbonyl)phenyl]phenyl]ethyl]benzamide] | 76.9% | < 2000 nM
Cc1ccc(N2CCN(C)CC2)cc1C(=O)N[C@H](C)c1cccc(-c2cccc(C(=O)NCCCN(C)C)c2)c1 [Example 93, N-[(1R)-1-[3-[3-[3-(Dimethylamino)propylcarbamoyl]phenyl]phenyl]ethyl]-2-methyl-5-(4-methylpiperazin-1-yl)benzamide] | 41.9% | < 2000 nM
